Assay results from US5112866A, “Ethanesulfonamide derivatives” (Ortho Pharmaceutical Corporation, priority 1989, dated 1992).
Counter-ions that a name gives are not always drawn. Like-named read-outs stand apart in the source and are kept apart here.

What was measured:
[1] = system: Rabbit Isolated Parietal Cells; experiment: Inhibition of 14C-aminopyrine accumulation in stimulated rabbit isolated parietal cells; assay type: cell-based; conditions: Oryctolagus cuniculus, 37° C.
Source text: Pharmacology of the Ethanesulfonamide Compounds - Rabbit Isolated Parietal Cells
Parietal cells were isolated from the fundic mucosa of rabbit stomachs by a four-stage collagenase digestion Process. The supernatant fraction from the last two stages of this Process contained the individual parietal cells. This cell suspension was centrifuged and reconstituted in a modified Hank's buffer to contain 2-3×10^6 cells/ml. […] The accumulation is stimulated by histamine and is blocked by H2 antagonists. Accumulation of ^14 C-AP is also stimulated by dibutyryl cAMP (dbcAMP). The cells were incubated with 0.5×10^6 cpm ^14 C-AP, with various concentrations of histamine or dbcAMP, […] isobutylmethylxanthine, and test compound added in a 20 μl volume of buffer or dimethylsulfoxide. The flasks were incubated in a shaking water bath at 37° C. Two 0.5 ml aliquots were then taken from each flask and cell pellets were collected by centrifugation. The pellets were solubilized with Protosol (NEN) and radioactivity determined by liquid scintillation spectrometry.
The concentration of compound required to inhibit ^14 C-AP accumulation in the stimulated parietal cell by 50% (IC50) was determined.

Gastric Secretion = experiment: Inhibition of Gastric Secretion in Rat (pylorus ligated); assay type: in vivo, rat (male Charles River); conditions: Dose 40 MPK, intraduodenal, four hours after pylorus ligation
Protocol: Inhibition of Gastric Secretion in Rat
Male Charles River rats weighing 150-300 grams were deprived of food but not water for 18-24 hours prior to use. Water was withheld during the experiment. The rats were weighed, anesthetized with ether and the pylorus ligated according to the method of Shay, H. et al., Gastroenterol. 26, 906 (1954). Test compounds were suspended in a 0.5% aqueous solution of methylcellulose (15 cps) and administered intraduodenally (i.d.) at the time of ligation. The rats were housed two per cage and sacrificed with CO2 four hours after ligation. The stomachs were removed and contents emptied into a graduated centrifuge tube. The tubes were centrifuged, the volume of gastric juice recorded, and any samples obviously contaminated by feces, food or blood eliminated. A 1 ml aliquot of gastric juice was titrated with 0.1 N NaOH to a pH of 7.0-7.4.
The volume of gastric juice secreted, the acid concentration, and the product of the volume times the concentration, i.e., the total amount of acid secreted, were statistically compared by a student's t-test using the pooled error variance.

[2] = system: Mouse osteoblastic-line cells (MC3T3-El); experiment: Mouse Osteoblast-line Cell Proliferation (3H-thymidine); assay type: cell-based; conditions: 0.1% FBS
Protocol: Pharmacology of the Ethenesulfonyl Fluoride Compounds--In Vitro Mouse Osteoblast-line Cell Proliferation
Reagents: Mouse osteoblastic-line cells (MC3T3-El) were plated in Dulbeccos Modified Eagles Medium (DMEM) with 25 mM Hepes Buffer, L-Glutamine, D-Glucose(4.5 gm/1) supplemented with 10% fetal bovine sera, Penicillin (100 units/ml) and Streptomycin ([…]) (Penicillin-Streptomycin liquid) and sodium pyruvate (10 μM final concentration). ^3 H-Thymidine (6.7 Ci/mmole) was diluted in DMEM media without FBS and filter sterilized. An aliquot of this solution was delivered to each culture well to a final concentration of ^3 H-thymidine of 0.4 μCi per well (2 μCi/ml).
Test Preparations: Solutions of the test compound were made on the day before incubation. These compounds were solubilized in either ethanol or DMSO at a concentration of 100 mM containing 0.1% FBS. The solutions were filter sterilized and then sterile serial dilutions were performed with DMEM media containing 0.1% FBS.
Osteoblast line cells were plated into 96 well culture plates, 1600 cells in 100 μL per well in DMEM with 25 mM Hepes Buffer, L-Glutamine, D-Glucose (4.5 gm/L) supplemented with 10% fetal bovine sera, Penicillin (100 units/mL) and Streptomycin (100 μg/mL) and sodium Pyruvate (10 μM final concentration). The media was replaced with DMEM containing no FBS and the cells were then incubated for an additional 24 hours. The following day, test compounds were added and screened at concentrations ranging from 10^-10 to 10^-5 M in the Presence of 0.1% FBS. The cells were then incubated an additional 20 hours. At this time 0.4 μ/Ci of 3H-thymidine was added to each culture well and the cells were incubated an additional 4 hours. The cells were then harvested with a Skatron Cell Harvester onto a glass fiber filter and washed with water, %5 trichloroacetic acid (TCA) and then 95% ethanol. The filters were then processed and counted on the LKB beta plate scintillation counter.

[3] = 14C-AP accumulation stimulated by dibutyryl cAMP, read-out: IC50 (dbcAMP)
[4] = 14C-AP accumulation stimulated by histamine, read-out: IC50 (H)

IC50 [1, 3]	IC50 [1, 4]	SMILES	% Reduction of Total Acid Output (Gastric Secretion)	Mouse Osteoblast-line Cell Proliferation [Expressed as a Percent of Control] ([2]; 0.001 μM)	Mouse Osteoblast-line Cell Proliferation [Expressed as a Percent of Control] ([2]; 0.01 μM)	Mouse Osteoblast-line Cell Proliferation [Expressed as a Percent of Control] ([2]; 0.1 μM)	Mouse Osteoblast-line Cell Proliferation [Expressed as a Percent of Control] ([2]; 1.0 μM)	Mouse Osteoblast-line Cell Proliferation [Expressed as a Percent of Control] ([2]; 10 μM)
130 nM	370 nM	O=S(=O)(CCNc1ccc(Cl)c(Cl)c1)NCCCOc1cccc(CN2CCCCC2)c1 [Example 1]	47.9%	–	–	–	–	–
1820 nM	920 nM	O=S(=O)(CCNc1ccc(F)cc1)NCCCOc1cccc(CN2CCCCC2)c1 [Example 2, 2-[(4-Fluorophenyl)amino]-N-[3-[3-(piperidinomethyl)phenoxy]propyl]ethanesulfonamide]	22.1%	–	–	–	–	–
2300 nM	390 nM	CCOC(=O)c1ccc(NCCS(=O)(=O)NCCCOc2cccc(CN3CCCCC3)c2)cc1 [Example 3]	25.6%	–	–	–	–	–
3700 nM	120 nM	O=[N+]([O-])c1ccc(NCCS(=O)(=O)NCCCOc2cccc(CN3CCCCC3)c2)cc1 [Example 4, 2-[(4-Nitrophenyl)amino]-N-[3-[3-(piperidinomethyl)phenoxy]propyl]ethanesulfonamide]	30.8%	–	–	–	–	–
860 nM	370 nM	O=S(=O)(CCNc1ccc(Br)cc1)NCCCOc1cccc(CN2CCCCC2)c1 [Example 5]	–	–	–	–	–	–
10000 nM	1000 nM	O=S(=O)(CCNc1ccccc1)NCCCOc1cccc(CN2CCCCC2)c1 [Example 6, 2-(Phenylamino)-N-[3-[3-(piperidinomethyl)phenoxy]propyl]ethanesulfonamide]	–	–	–	–	–	–
2000 nM	840 nM	CC(C)Oc1ccc(NCCS(=O)(=O)NCCCOc2cccc(CN3CCCCC3)c2)cc1 [Example 7, 2-[[4-(1-Methylethony)Phenyl]amino]-N-[3-[3-(piperidinomethyl)Phenoxy]propyl]ethanesulfonamide]	–	–	–	–	–	–
–	–	CCOC(=O)c1ccc(NCCS(=O)(=O)F)cc1 [Example 16]	–	132.8% of Control	142.1% of Control	127.5% of Control	136.5% of Control	154.7% of Control
–	–	COc1ccc(NCCS(=O)(=O)F)cc1 [Example 17, Monohydrochloride]	–	165.5% of Control	148.9% of Control	129.1% of Control	115.9% of Control	108.8% of Control
–	–	O=S(=O)(F)CCNc1ccccc1 [Example 18, Monohydrochloride]	–	132.6% of Control	125.6% of Control	108.1% of Control	93.1% of Control	95.9% of Control
–	–	CCCCc1ccc(NCCS(=O)(=O)F)cc1 [Example 19, Monohydrochloride]	–	109.0% of Control	143.3% of Control	159.8% of Control	97.4% of Control	115.7% of Control
–	–	O=S(=O)(F)CCNc1ccc(F)cc1 [Example 20, Monohydrochloride]	–	133.4% of Control	111.8% of Control	110.2% of Control	116.9% of Control	112.3% of Control
–	–	Cc1ccc(NCCS(=O)(=O)F)cc1 [Example 21]	–	131.5% of Control	132.0% of Control	126.6% of Control	119.9% of Control	111.8% of Control
–	–	COc1ccc(NCCS(=O)(=O)F)cc1OC [Example 22, Monohydrochloride]	–	143.6% of Control	133.6% of Control	116.4% of Control	113.5% of Control	106.7% of Control
–	–	O=S(=O)(F)CCNc1ccc(C(F)(F)F)cc1 [Example 23]	–	108.1% of Control	97.9% of Control	107.3% of Control	120.8% of Control	111.7% of Control
–	–	COc1ccc(CCN(C)CCS(=O)(=O)F)cc1OC [Example 24, N-[2-(Fluorosulfonyl)ethyl]-3,4-dimethoxy-N-methylphenethylamine]	–	150.4% of Control	143.9% of Control	153.5% of Control	123.3% of Control	106.7% of Control
–	–	CCc1ccc(NCCS(=O)(=O)F)cc1 [Example 25, Monohydrochloride]	–	139.4% of Control	123.3% of Control	100.9% of Control	110.6% of Control	90.0% of Control
–	–	CC(C)(C)c1ccc(NCCS(=O)(=O)F)cc1 [Example 26, Hydrate]	–	152.8% of Control	165.7% of Control	89.9% of Control	102.7% of Control	93.2% of Control
–	–	CC(C)c1ccc(NCCS(=O)(=O)F)cc1 [Example 27, Hydrate]	–	137.2% of Control	130.0% of Control	106.9% of Control	110.8% of Control	97.7% of Control

SMILES	IC50 [1, 3]	IC50 [1, 4]	% Reduction of Total Acid Output (Gastric Secretion)	Mouse Osteoblast-line Cell Proliferation [Expressed as a Percent of Control] ([2]; 0.001 μM)	Mouse Osteoblast-line Cell Proliferation [Expressed as a Percent of Control] ([2]; 0.01 μM)	Mouse Osteoblast-line Cell Proliferation [Expressed as a Percent of Control] ([2]; 0.1 μM)	Mouse Osteoblast-line Cell Proliferation [Expressed as a Percent of Control] ([2]; 1.0 μM)	Mouse Osteoblast-line Cell Proliferation [Expressed as a Percent of Control] ([2]; 10 μM)
CCCCCOc1ccc(NCCS(=O)(=O)NCCCOc2cccc(CN3CCCCC3)c2)cc1 [Example 8, 2-[(4-Pentoxyphenyl)amino]-N-[3-[3-(piperidinomethyl)phenoxy]propyl]ethanesulfonamide]	370 nM	330 nM	–	–	–	–	–	–
